Article PMC9952215, “Giving a Hand: Synthetic Peptides Boost the Antifungal Activity of Itraconazole against Cryptococcus neoformans” (Antibiotics, 2023)
Values after ≈ are worked out from the molar mass of the structure shown.

Key:
[1] = tested on: C. neoformans (ATCC 32045); experiment: Combined antifungal activity (growth inhibition, absorbance 600 nm); type: cell-based, Cryptococcus neoformans; conditions: YPD, 10^6 cells mL^−1, 24 h, 30 °C, A600, mean ± SD
Procedure: The combined antifungal activity was evaluated as described in [11]. The combinations with SAMPs and itraconazole were constituted of peptides MIC50 [7] + itraconazole (ITR) 500 (1×) µg mL^−1, peptides [5×D] + ITR [1×D], peptides [10×D] + ITR [5×D], and peptides [10×D] + ITR [10×D]. The cells were grown on YPD agar for […], and cryptococcal cells were then resuspended in YPD medium and standardized at 10^6 cells mL^−1. The assay was performed in 96-well plates and incubated for 24 h at 30 °C. Then, the absorbance was measured at 600 nm using an automated microplate reader (Epoch, Biotek, Santa Clara, CA, USA). The best combinations were used to study the mechanisms of action. […] Experiments were performed in three biological replications, and each biological replication was performed with three technical replicates. The statistical analyses were performed using GraphPad Prism (version 5.01) for Microsoft Windows. All data obtained in the assays were compared using standard deviation and the one-way analysis of variance (ANOVA), followed by the Tukey test (p < 0.05).

C. neoformans cells [2] = experiment: Overproduction of reactive oxygen species (DCFH-DA, fluorescence microscopy, ImageJ counting); type: cell-based, Cryptococcus neoformans
Procedure: The ROS overproduction was evaluated according to the method Dias et al.. After incubation for 24 h, as described above, the samples were washed three times with sterile 0.15 M NaCl and centrifuged (5000× g 5 min at 4 °C) to remove the YPD medium. The analysis was conducted, as described, by PI assay. Next, 9 μL of 2',7' […] diacetate-DCFH-DA (Sigma, St. Louis, MI, USA)-was added and incubated in the dark for 30 min at room temperature (22 °C ± 2). Next, they were washed and centrifuged twice under the same conditions as those mentioned above. Then, the cryptococcal cells were observed under a fluorescence microscope (Olympus System BX 41, Tokyo, Japan), with an excitation wavelength of 488 nm and an emission wavelength of 525 nm. The fluorescent C. neoformans cells were counted using ImageJ software using the Cell Counter plugin, according to the methodology described by Aguiar et al.. The cells were counted in the bright and fluorescent field of the same picture. Cells presenting fluorescence were called positive cells, and those without fluorescence were called negative cells. […] The cells were calculated using the equation: number of positive cells × 100/number of cells in the bright field. The number of negative cells was calculated following the equation: number of cells in the bright field-number of positive cells. Three different images were used to count the cells.

C. neoformans [3] = tested on: C. neoformans; parameters: method as in earlier work; conditions: previously defined; ref 7 (Aguiar et al.); cited from earlier work
C. neoformans [4] = conditions: cited from earlier work; for MIC50 against C. neoformans, alone / concentration in the combination of ibuprofen and ITR: ref 17 (Rocha et al.); for concentration in the combination of ibuprofen and ITR: ibuprofen combined with ITR
Description: For example, […] et al. reported the combined activity against C. neoformans of the aminoglycoside K20 with ITR. […] In contrast, when combined, the concentration to reach the same activity decreases to 187 and 1 for K20 and ITR [16]. In another study, Rocha et al. evaluated the synergistic effect between ibuprofen and ITR against C. neoformans. […] However, the co ...

C. neoformans cells [5] = experiment: Cell membrane integrity / membrane pore formation (propidium iodide uptake, fluorescence microscopy, ImageJ counting); type: cell-based, Cryptococcus neoformans
Procedure: The cell membrane integrity of C. neoformans was evaluated as described in [7]. After incubation for 24 h, as described above, the samples were washed three times with sterile 0.15 M NaCl and centrifuged (5000× g 5 min at 4 °C) to remove the YPD medium. Then, the cells were incubated with propidium iodide (PI) for 30 min in the dark at room temperature (22 °C ± 2). Next, they were washed and centrifuged twice, under the same conditions as previously mentioned. […] The fluorescent C. neoformans cells were counted using ImageJ software using the Cell Counter plugin, according to the methodology described by Aguiar et al. […] The cells were counted in the bright and fluorescent field of the same picture. Cells presenting fluorescence were called positive cells, and those without fluorescence were called negative cells. […] The cells were calculated using the equation: number of positive cells × 100/number of cells in the bright field. The number of negative cells was calculated following the equation: number of cells in the bright field—number of positive cells. Three different images were used to count the cells.

CCC(C)n1ncn(-c2ccc(N3CCN(c4ccc(OCC5COC(Cn6cncn6)(c6ccc(Cl)cc6Cl)O5)cc4)CC3)cc2)c1=O (centres unmarked) [ITR, itraconazole]
% of Inhibition of C. neoformans Growth ([1]; single agent at 1× (ITR 500; Mo-CBP3-PepII 25; RcAlb-PepII, RcAlb-PepIII, PepGAT, PepKAA 0.04 µg mL^−1)): 45.3 ± 0.021%
% of Inhibition of C. neoformans Growth ([1]; single agent at 5×D (ITR 100; Mo-CBP3-PepII 5; other peptides 0.008 µg mL^−1)): 12.2 ± 0.003%
% of Inhibition of C. neoformans Growth ([1]; single agent at 10×D (ITR 50; Mo-CBP3-PepII 2.5; other peptides 0.004 µg mL^−1)): 0%
DCFH-DA-fluorescent cells (C. neoformans cells [2]; ITR alone (dilution not stated), ImageJ count of three images): 0%
ROS accumulation (DCFH-DA fluorescence), qualitative (C. neoformans cells [2]; ITR alone, fluorescence images, Figure 2): no ROS accumulation
MIC50 against C. neoformans (C. neoformans [3]): 500 µg/mL (≈ 709 µM)
concentration to reach the same activity when combined (C. neoformans [4]; K20 combined with ITR, unit not given, ref 16 (Shrestha et al.)): 1
concentration presenting activity against C. neoformans, alone (C. neoformans [4]; agent alone, ref 16 (Shrestha et al.)): 780 µg/mL
MIC50 against C. neoformans, alone (C. neoformans [4]; agent alone): 500 µg/mL
concentration in the combination of ibuprofen and ITR (C. neoformans [4]): 125 µg/mL
positive PI-fluorescent cells (C. neoformans cells [5]; ITR alone (dilution not given; ITR 1× in Figure 1 text), ImageJ count of three images): 0%
membrane pore formation (PI red fluorescence), qualitative (C. neoformans cells [5]; single agent at 1×, fluorescence images, Figure 1): no red fluorescence

CC(C)Cc1ccc(C(C)C(=O)O)cc1 (centres unmarked) [ibuprofen]
MIC50 against C. neoformans, alone (C. neoformans [4]; agent alone): 512 µg/mL
concentration in the combination of ibuprofen and ITR (C. neoformans [4]): 16 µg/mL
